From patent US20240208992A1, “MACROCYCLES AS CFTR MODULATORS” (Idorsia Pharmaceuticals Ltd, priority 2021, published 2024)

Biological target: human F508del-CFTR (Homo sapiens, UniProt P13569, DEL508-508)
Experiment: F508del-CFTR cell surface expression (corrector activity), DiscoveRx ß-galactosidase complementation chemiluminescence assay in recombinant U2OS cell line;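 further: U2OS cells co-expressing ProLink-tagged F508del-CFTR and a membrane-anchored enzyme acceptor, where more surface CFTR restores β-galactosidase activity measured by chemiluminescence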
Conditions: U2OS cell line, 16h compound incubation; for EC50: EC50, F508del-CFTR cell surface expression, geomean values; for Emax: U2OS, in relation to the Emax of the corrector lumacaftor (=100%), arithmetic mean values

Chain of human F508del-CFTR (P13569 with tags, fused parts or gaps DEL508-508): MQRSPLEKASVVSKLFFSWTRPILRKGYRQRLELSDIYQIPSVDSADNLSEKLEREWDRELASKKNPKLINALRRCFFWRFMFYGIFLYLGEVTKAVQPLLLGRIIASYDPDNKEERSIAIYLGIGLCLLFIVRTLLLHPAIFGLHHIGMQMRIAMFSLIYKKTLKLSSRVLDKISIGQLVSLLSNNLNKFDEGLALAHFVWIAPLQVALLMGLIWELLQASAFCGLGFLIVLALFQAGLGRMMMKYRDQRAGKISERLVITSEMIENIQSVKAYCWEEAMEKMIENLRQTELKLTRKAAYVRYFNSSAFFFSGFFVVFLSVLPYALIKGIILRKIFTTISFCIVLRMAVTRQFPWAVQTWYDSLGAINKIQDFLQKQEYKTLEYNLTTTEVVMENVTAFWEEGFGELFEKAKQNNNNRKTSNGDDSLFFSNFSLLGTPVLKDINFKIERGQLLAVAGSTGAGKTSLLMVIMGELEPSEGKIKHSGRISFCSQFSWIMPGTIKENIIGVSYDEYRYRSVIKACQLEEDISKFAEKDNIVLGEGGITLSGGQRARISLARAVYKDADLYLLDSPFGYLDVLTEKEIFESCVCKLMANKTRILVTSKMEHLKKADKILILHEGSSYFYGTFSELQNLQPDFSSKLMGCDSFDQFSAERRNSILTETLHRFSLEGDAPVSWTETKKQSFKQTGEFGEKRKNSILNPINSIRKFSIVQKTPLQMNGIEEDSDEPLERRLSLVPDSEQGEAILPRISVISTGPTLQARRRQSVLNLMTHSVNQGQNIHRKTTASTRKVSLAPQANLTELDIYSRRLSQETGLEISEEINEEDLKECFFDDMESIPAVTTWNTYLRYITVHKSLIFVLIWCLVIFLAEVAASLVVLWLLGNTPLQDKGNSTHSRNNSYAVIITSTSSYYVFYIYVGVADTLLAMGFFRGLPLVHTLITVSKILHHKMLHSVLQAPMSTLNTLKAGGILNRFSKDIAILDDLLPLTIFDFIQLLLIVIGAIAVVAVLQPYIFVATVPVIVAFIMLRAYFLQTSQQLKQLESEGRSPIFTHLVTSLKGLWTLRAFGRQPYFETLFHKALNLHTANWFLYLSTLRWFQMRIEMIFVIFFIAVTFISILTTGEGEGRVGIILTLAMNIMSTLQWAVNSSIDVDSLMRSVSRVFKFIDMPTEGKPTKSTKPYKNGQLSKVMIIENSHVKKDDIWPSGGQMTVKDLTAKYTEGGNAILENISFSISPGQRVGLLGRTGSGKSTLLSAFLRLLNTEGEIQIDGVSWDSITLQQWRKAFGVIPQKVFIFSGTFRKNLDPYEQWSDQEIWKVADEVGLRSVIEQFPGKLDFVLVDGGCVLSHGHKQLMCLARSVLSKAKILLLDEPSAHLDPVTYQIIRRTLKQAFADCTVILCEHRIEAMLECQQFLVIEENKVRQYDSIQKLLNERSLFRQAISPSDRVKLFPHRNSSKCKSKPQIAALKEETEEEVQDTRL

Work on `COc1cccc(CCNC(=O)[C@@H]2CC(=O)N(C)[C@@H](CC(C)C)C(=O)N3CCN(CC(C)C)C[C@H]3C(=O)N[C@H](Cc3ccccc3)COc3cnc4ccccc4c3C(=O)N2)c1` [Example 373, (9S,13S,19aS,22R)-22-benzyl-13,18-diisobutyl-N-(3-methoxyphenethyl)-12-methyl-7,11,14,20-tetraoxo-7,8,9,10,11,12,13,14,17,18,19,19a,20,21,22,23-hexadecahydro-16H-pyrazino[2′,11:6,7][1]oxa[4,7,10,14]tetraazacycloheptadecino[17,16-c]quinoline-9-carboxamide] yielded an EC50 of 200 nM and an Emax of 149%.
In the case of `COc1cccc(CCNC(=O)[C@@H]2CC(=O)N(C)[C@@H](CC(C)C)C(=O)N3CCN(C(C)C)C[C@@H]3C(=O)N[C@H](Cc3ccccc3)COc3cnc4ccccc4c3C(=O)N2)c1` [Example 374, (9S,13S,19aR,22R)-22-benzyl-13-isobutyl-18-isopropyl-N-(3-methoxyphenethyl)-12-methyl-7,11,14,20-tetraoxo-7,8,9,10,11,12,13,14,17,18,19,19a,20,21,22,23-hexadecahydro-16H-pyrazino[2′,1′:6,7][1]oxa[4,7,10,14]tetraazacycloheptadecino[17,16-c]quinoline-9-carboxamide], the EC50 is reported as 102 nM and the Emax is reported as 333%.
`Cc1cc(CCNC(=O)[C@@H]2CC(=O)N(C)[C@@H](CC(C)C)C(=O)N3CCN(C(C)C)C[C@@H]3C(=O)N[C@H](Cc3ccccc3)COc3cnc4ccccc4c3C(=O)N2)on1` [Example 375, (9S,13S,19aR,22R)-22-benzyl-13-isobutyl-18-isopropyl-12-methyl-N-(2-(3-methylisoxazol-5-yl)ethyl)-7,11,14,20-tetraoxo-7,8,9,10,11,12,13,14,17,18,19,19a,20,21,22,23-hexadecahydro-16H-pyrazino[2′,1′:6,7][1]oxa[4,7,10,14]tetraazacycloheptadecino[17,16-c]quinoline-9-carboxamide] showed an EC50 of 461 nM and an Emax of 316%.
`COc1cccc(CCNC(=O)[C@@H]2CC(=O)N(C)[C@@H](CC(C)C)C(=O)N3CC=CC[C@@H]3C(=O)N[C@H](Cc3ccccc3)COc3ccc4ccccc4c3C(=O)N2)c1` [Example 376, (4aR,7R,18S,22S)-7-benzyl-22-isobutyl-N-(3-methoxyphenethyl)-21-methyl-5,16,20,23-tetraoxo-4,4a,5,6,7,8,16,17,18,19,20,21,22,23-tetradecahydro-1H-naphtho[1,2-p]pyrido[2,1-f][1]oxa[4,7,10,14]tetraazacycloheptadecine-18-carboxamide] gave an EC50 of 156 nM and an Emax of 284%.
For `COc1cc(CCNC(=O)[C@@H]2CC(=O)N(C)[C@@H](CC(C)C)C(=O)N3CCCC[C@@H]3C(=O)N[C@H](Cc3ccccc3)COc3ccc4nc(C)n(C)c4c3C(=O)N2)cc(OC)c1` [Example 377, (8S,12S,18aR,21R)-21-benzyl-N-(3,5-dimethoxyphenethyl)-12-isobutyl-4,5,11-trimethyl-6,10,13,19-tetraoxo-6,7,8,9,10,11,12,13,16,17,18,18a,19,20,21,22-hexadecahydro-5H,15H-imidazo[4′,5′:5,6]benzo[1,2-p]pyrido[2,1-f][1]oxa[4,7,10,14]tetraazacycloheptadecine-8-carboxamide], the EC50 was 704 nM and the Emax was 111%.
For `CC(C)C[C@H]1C(=O)N2CCOC[C@@H]2C(=O)N[C@H](Cc2ccccc2)COc2ccc3ccccc3c2C(=O)N[C@H](C(=O)NCCc2cccc(Br)c2)CC(=O)N1C` [Example 378, (4aR,7R,18S,22S)-7-benzyl-N-(3-bromophenethyl)-22-isobutyl-21-methyl-5,16,20,23-tetraoxo-1,2,4,4a,5,6,7,8,16,17,18,19,20,21,22,23-hexadecahydronaphtho[1,2-p][1,4]oxazino[3,4-f][1]oxa[4,7,10,14]tetraazacycloheptadecine-18-carboxamide], the EC50 was 45 nM and the Emax was 138%.
